In ChEMBL document CHEMBL1201862, “PubChem BioAssay data set” (2004):
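In this assay, cells in 96-well plates receive the compound at five concentrations for 48 hours. Endpoints are linearly interpolated between the surrounding concentrations. Abbreviation: GI50, concentration required for 50% inhibition of growth.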 The source made the active and inactive calls. Cut-off read from the data, not from the text of the source: active = GI50 up to about 1.1 µM and inactive = higher.

How the values were obtained:
Test in all cases: growth of human tumour cells (NCI), 48 h
OVCAR-4 = test system: OVCAR-4
HL-60 = test system: HL-60
OVCAR-8 = test system: OVCAR-8
MOLT-4 = test system: MOLT-4
IGROV-1 = test system: IGROV-1
SF-295 = test system: SF-295
NCI-H522 = test system: NCI-H522
SK-MEL-2 = test system: SK-MEL-2
ACHN = test system: ACHN
M14 = test system: M14
SNB-75 = test system: SNB-75
RXF 393 = test system: RXF 393
UO-31 = test system: UO-31
NCI-H460 = test system: NCI-H460
A498 = test system: A498
SN12C = test system: SN12C
UACC-257 = test system: UACC-257
TK-10 = test system: TK-10
HCT-15 = test system: HCT-15
EKVX = test system: EKVX

Measured: GI50

COC(=O)C1=C(C(=O)OC)C(C(=O)OC)C(C(=O)OC)C(C(=O)OC)(C(=O)OC)C(C(=O)OC)=C1C(=O)OC (stereo not given)
8.39 µM: HCT-15
inactive: OVCAR-4 22.8 µM | HL-60 1.97 µM | OVCAR-8 11.8 µM | MOLT-4 2.59 µM | IGROV-1 18.1 µM | SF-295 19.2 µM | NCI-H522 1.96 µM | SK-MEL-2 17.9 µM | ACHN 14.7 µM | M14 15.1 µM | SNB-75 19.2 µM | RXF 393 7.43 µM | UO-31 16.3 µM | NCI-H460 19 µM | A498 15.5 µM | SN12C 14.3 µM | UACC-257 13.9 µM | TK-10 15.6 µM | EKVX 18.3 µM

NC(=O)C(=CNC(=S)Nc1ccc(Cl)c(Cl)c1)C(N)=O
inactive: OVCAR-4 46 µM | HL-60 > 60.1 µM | OVCAR-8 > 88.3 µM | MOLT-4 48.3 µM | IGROV-1 92.7 µM | SF-295 > 85.7 µM | NCI-H522 17.5 µM | SK-MEL-2 > 81.3 µM | ACHN > 94 µM | M14 > 100 µM | SNB-75 > 59.6 µM | RXF 393 > 49.9 µM | UO-31 16.5 µM | NCI-H460 > 100 µM | A498 > 61.4 µM | SN12C > 100 µM | UACC-257 > 100 µM | TK-10 > 77.8 µM | EKVX 65.9 µM
45.1 µM: HCT-15

COc1cc(O)c2c(c1)C(O)C(O)CC1OC1C(=O)/C=C/CC(C)OC2=O (stereo not given)
inactive: OVCAR-4 3.27 µM | OVCAR-8 4.13 µM | MOLT-4 2.03 µM | IGROV-1 2.48 µM | SF-295 15.6 µM | NCI-H522 1.52 µM | SK-MEL-2 2.72 µM | ACHN 3.2 µM | SNB-75 6.65 µM | UO-31 1.17 µM | NCI-H460 7.03 µM | A498 5.42 µM | SN12C 3.72 µM | TK-10 2.28 µM | EKVX 8.53 µM
active: HL-60 0.216 µM | M14 0.0933 µM | RXF 393 0.982 µM | UACC-257 0.0849 µM
2.93 µM: HCT-15

COc1cc(/C=C2\C(=O)N(c3cccc(NC(C)=O)c3)C(c3ccccc3)S2(=O)=O)cc(OC)c1OC (stereo not given)
inactive: OVCAR-4 70.5 µM | HL-60 17.5 µM | OVCAR-8 48.2 µM | MOLT-4 19.8 µM | IGROV-1 > 100 µM | SF-295 50.9 µM | NCI-H522 28.4 µM | SK-MEL-2 > 100 µM | ACHN > 100 µM | M14 > 100 µM | SNB-75 62.7 µM | RXF 393 > 100 µM | UO-31 50.5 µM | NCI-H460 67.5 µM | A498 > 100 µM | SN12C 67.5 µM | UACC-257 > 100 µM | TK-10 > 100 µM | EKVX 74.1 µM
71.4 µM: HCT-15

CC1C(c2ccccc2)N(C)C(c2ccccc2)C(C)C1(O)c1ccccc1 (stereo not given)
inactive: OVCAR-4 > 100 µM | HL-60 31.8 µM | OVCAR-8 > 100 µM | MOLT-4 > 100 µM | IGROV-1 > 100 µM | SF-295 46.7 µM | NCI-H522 > 100 µM | SK-MEL-2 79.6 µM | ACHN > 100 µM | M14 > 100 µM | SNB-75 73.3 µM | RXF 393 > 100 µM | UO-31 > 100 µM | NCI-H460 34.4 µM | A498 42.3 µM | SN12C > 100 µM | UACC-257 > 100 µM | TK-10 > 100 µM | EKVX > 100 µM
84.1 µM: HCT-15

C#CCOC(=O)C(N)CC(N)=O (stereo not given)
> 100 µM: HCT-15
inactive: OVCAR-4 > 100 µM | HL-60 > 100 µM | OVCAR-8 > 100 µM | MOLT-4 > 100 µM | IGROV-1 > 100 µM | SF-295 > 100 µM | NCI-H522 > 100 µM | SK-MEL-2 > 100 µM | ACHN > 100 µM | M14 > 100 µM | SNB-75 > 100 µM | RXF 393 > 100 µM | UO-31 > 100 µM | NCI-H460 > 100 µM | A498 > 100 µM | SN12C > 100 µM | UACC-257 > 100 µM | TK-10 > 100 µM | EKVX > 100 µM

O=[N+]([O-])c1ccccc1S(=O)(=O)c1cc(O)cc2c1NCCC2
19.6 µM: HCT-15
inactive: OVCAR-4 15.3 µM | HL-60 3.47 µM | OVCAR-8 11.8 µM | MOLT-4 4.23 µM | IGROV-1 17.1 µM | SF-295 25.3 µM | NCI-H522 7.5 µM | SK-MEL-2 23.7 µM | ACHN 14.2 µM | M14 17 µM | SNB-75 14.5 µM | RXF 393 16.4 µM | UO-31 15.5 µM | NCI-H460 23.4 µM | A498 13.9 µM | SN12C 21.1 µM | UACC-257 13.5 µM | TK-10 21.4 µM | EKVX 16.7 µM

O=C(N/C(=C\c1cc(Cl)ccc1Cl)c1nc2cc(Cl)ccc2[nH]1)c1ccccc1
inactive: OVCAR-4 25.8 µM | HL-60 14.3 µM | OVCAR-8 16.1 µM | MOLT-4 8.04 µM | IGROV-1 13.1 µM | SF-295 16.1 µM | NCI-H522 12.4 µM | SK-MEL-2 13.7 µM | ACHN 22.5 µM | M14 17.1 µM | SNB-75 19.1 µM | RXF 393 15.4 µM | UO-31 11.7 µM | NCI-H460 15.1 µM | A498 21.4 µM | SN12C 19.5 µM | UACC-257 15 µM | TK-10 3.78 µM | EKVX 23 µM
16.4 µM: HCT-15

COc1cc2c3c(c1O)-c1c(ccc(OC)c1OC)CC3N(C)CC2 (stereo not given)
inactive: OVCAR-4 > 100 µM | HL-60 40.9 µM | OVCAR-8 > 100 µM | MOLT-4 > 100 µM | IGROV-1 > 100 µM | SF-295 > 100 µM | NCI-H522 > 100 µM | SK-MEL-2 > 100 µM | ACHN > 100 µM | M14 > 100 µM | SNB-75 > 100 µM | RXF 393 > 100 µM | UO-31 > 100 µM | NCI-H460 > 100 µM | A498 > 100 µM | SN12C > 100 µM | UACC-257 > 100 µM | TK-10 > 100 µM | EKVX > 100 µM
> 100 µM: HCT-15

CCNC(=S)N/N=C(/C)c1cccc(/C(C)=N\NC(=S)NCC)n1
0.493 µM: HCT-15
inactive: OVCAR-4 2.14 µM | IGROV-1 1.24 µM | NCI-H522 1.15 µM | SK-MEL-2 3.9 µM | M14 1.2 µM | SNB-75 14.9 µM | RXF 393 3.44 µM | A498 7.52 µM | SN12C 1.46 µM | UACC-257 4.16 µM
active: HL-60 0.57 µM | OVCAR-8 0.345 µM | MOLT-4 0.365 µM | SF-295 0.488 µM | ACHN 0.562 µM | UO-31 0.968 µM | NCI-H460 0.31 µM | TK-10 0.771 µM | EKVX 1.11 µM

COc1ccc(NC(=O)CC(=O)N2N=C(N(CCC#N)c3ccccc3Cl)CC2c2ccccc2)cc1 (stereo not given)
> 100 µM: HCT-15
inactive: OVCAR-4 > 100 µM | HL-60 > 100 µM | OVCAR-8 > 100 µM | MOLT-4 > 100 µM | IGROV-1 > 100 µM | SF-295 > 100 µM | NCI-H522 > 100 µM | SK-MEL-2 > 100 µM | ACHN > 100 µM | M14 > 100 µM | SNB-75 > 100 µM | RXF 393 > 100 µM | UO-31 > 100 µM | NCI-H460 > 100 µM | A498 > 100 µM | SN12C > 100 µM | UACC-257 > 100 µM | TK-10 > 100 µM | EKVX > 100 µM

O=C(O)C1=Cc2cccc3cccc(c23)C1=O
inactive: OVCAR-4 > 100 µM | HL-60 > 100 µM | OVCAR-8 > 100 µM | MOLT-4 > 100 µM | IGROV-1 > 100 µM | SF-295 > 100 µM | NCI-H522 > 100 µM | SK-MEL-2 > 100 µM | ACHN > 100 µM | M14 > 100 µM | SNB-75 > 100 µM | RXF 393 > 100 µM | UO-31 81.8 µM | NCI-H460 > 100 µM | A498 24.3 µM | SN12C > 100 µM | UACC-257 > 100 µM | TK-10 > 100 µM | EKVX > 100 µM
> 100 µM: HCT-15

COC(Cc1ccccc1)NC(C)=O (stereo not given)
inactive: OVCAR-4 > 100 µM | HL-60 > 100 µM | OVCAR-8 > 100 µM | MOLT-4 > 100 µM | IGROV-1 > 100 µM | SF-295 > 100 µM | NCI-H522 > 100 µM | SK-MEL-2 > 100 µM | ACHN > 100 µM | M14 > 100 µM | SNB-75 > 100 µM | RXF 393 > 100 µM | UO-31 > 100 µM | NCI-H460 > 100 µM | A498 > 100 µM | SN12C > 100 µM | UACC-257 > 100 µM | TK-10 > 100 µM | EKVX > 100 µM
> 100 µM: HCT-15

C[C@H](CCC(=O)O)[C@H]1CC[C@H]2[C@@H]3[C@@H](O)C[C@@H]4C[C@H](O)CC[C@]4(C)[C@H]3CC[C@]12C
inactive: OVCAR-4 > 100 µM | HL-60 63.5 µM | OVCAR-8 73.8 µM | MOLT-4 89.7 µM | IGROV-1 > 100 µM | SF-295 53.6 µM | NCI-H522 > 100 µM | SK-MEL-2 > 100 µM | ACHN > 100 µM | M14 95.3 µM | SNB-75 > 100 µM | RXF 393 > 100 µM | UO-31 57.5 µM | NCI-H460 58.2 µM | A498 > 100 µM | SN12C > 100 µM | UACC-257 92.9 µM | TK-10 99.3 µM | EKVX > 100 µM
67.3 µM: HCT-15
